For 17 compounds, GI50 and TGI results are on record in PubChem BioAssay (NCI).

“And” between values parts separate entries of the source, which are not always exact repeats. Identical values can stand only once.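 Cells were grown in 96-well plates and exposed to each compound for 48 hours at five concentrations; endpoints were interpolated linearly between bracketing concentrations, or set to the highest concentration if not reached. GI50: concentration for 50% inhibition of growth. TGI: total growth inhibition.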

Holding throughout (assay): NCI anticancer screen, dose series, 48 h
The test system of test [1] is ACHN renal.
The test system of test [2] is COLO 205 colon.
Test [3] relates to OVCAR-5 ovarian.
Test [4] concerns CCRF-CEM leukemia.
Test [5] concerns NCI/ADR-RES ovarian.
Test [6] relates to UACC-62 melanoma.
For test [7], the system named is A498 renal.
The test system of test [8] is BT-549 breast.
Test [9] has as its system HCT-116 colon.
For test [10], the system named is HT29 colon.

As to `CC(=O)OC[C@H]1O[C@@H](n2ccc(=O)[nH]c2=O)[C@H](OC(C)=O)[C@@H]1OC(C)=O`, the GI50 was greater than 100 µM in test [1]; greater than 100 µM in test [2]; greater than 100 µM in test [3]; greater than 100000 nM in [4]; greater than 100000 nM in test [5]; greater than 100 µM in [6]. Also, the GI50 in test [7], in test [8], in test [9] and in test [10] was greater than 100 µM in each case. For the same compound, the TGI in test [1], in test [2], in test [3], in [4], in test [5] and in test [6] was greater than 100 µM throughout. The TGI in test [7], in [8], in [9] and in test [10] was greater than 100 µM each time.

In the case of `COc1ccccc1-[n+]1cc(-c2ccc(-c3ccccc3)cc2)n2c1CCCCC2`, the GI50 in [1] was 2.45 µM; in test [2], 0.236 µM; in test [3], 0.668 µM; in test [4], 224 nM; in [5] it was 19800 nM; in [6], 0.159 µM. In addition, the GI50 in test [7] was 0.615 µM; in test [8], 0.15 µM; in [9] it was 0.231 µM; in test [10] it was 0.281 µM. For the same compound, the TGI in [1] was 11.3 µM; in [2] it was 2.62 µM; in [3], 16.6 µM; in [4], 23.9 µM; in test [5], 60.4 µM; in [6], 1.8 µM. Besides, the TGI amounted to 7.5 µM in [7], 1.25 µM in test [8], 11.9 µM in [9] and 10.2 µM in [10].

As to `Cc1ccc(C(CN(C)C)C(=O)c2ccccc2)cc1` (centres undefined), the GI50 was 1.63 µM in test [1]; 2.2 µM in test [2]; 4.23 µM in [3]; 442 nM in [4]; 2890 nM in test [5]; 1.85 µM in [6]. In addition, the GI50 in [7] was 13.5 µM; in test [8], 1.7 µM; in test [9], 0.514 µM; in test [10] it was 3.26 µM. The TGI stood at 3.18 µM in [1]; 4.91 µM in test [2]; 15.8 µM in test [3]; 10.6 µM in [4]; 12.6 µM in test [5]; 4.33 µM in test [6]. Further, the TGI came out at 28.6 µM in test [7], 3.75 µM in [8], 1.83 µM in test [9] and 12.5 µM in [10].

Turning to `Cc1c(N=Nc2ccc([N+](=O)[O-])cc2)nc2scc(-c3ccccc3)n12`, the TGI in [1] is greater than 100 µM; in [2], greater than 100 µM; in test [3], greater than 100 µM; in test [4] it was greater than 73.4 µM; in test [5] it was greater than 100 µM; in test [6] it was greater than 100 µM. For the same compound, the TGI in test [7], in test [8], in [9] and in [10] was greater than 100 µM in each case.

`C=C1[C@@H](C)[C@H]2[C@H](Cc3ccccc3)NC(=O)[C@]23OC(=O)/C=C/[C@H](O)CCC[C@@H](C)C/C=C/[C@H]3[C@@H]1O`: the TGI was greater than 57.4 µM in test [1]; greater than 100 µM in test [2]; greater than 100 µM in test [3]; 57.4 µM in test [4]; 91.1 µM in test [5]; 66.2 µM in [6]. Besides, the TGI in [7] was 16.5 µM; in test [8] it was greater than 64.3 µM; in [9], greater than 100 µM; in test [10] it was greater than 100 µM.

Consider `COc1cc(Nc2nc3cc(N)cc(N)c3nc2-c2ccccc2)cc(OC)c1`, for which the GI50 was 5.65 µM in test [1]; 14.5 µM in test [2]; 26.6 µM in [3]; 12900 nM in test [5]; 7.33 µM in [6]; 4.91 µM in test [7]. Besides, the GI50 in test [8] was 4.69 µM; in [9], 16.9 µM; in [10], 27.3 µM. The TGI in [1] was 83.2 µM; in test [2], 31.4 µM; in test [3] it was greater than 100 µM; in test [4], 0.167 µM; in test [5] it was 73.4 µM; in test [6], 23.3 µM. For the same compound, the TGI in [7] was 22.4 µM; in [8] it was 31.8 µM; in [9], 54.1 µM; in [10] it was greater than 100 µM.

As to `O=C(/C=C/c1ccc(OCC(=O)N2CCN(c3ccccc3)CC2)cc1)c1ccc(Cl)cc1`, the TGI is 69.7 µM in [1]; greater than 100 µM in [2]; greater than 100 µM in test [3]; greater than 100 µM in test [4]; greater than 100 µM in test [5]; greater than 95.7 µM in [6]. The TGI in [7] was 60.3 µM; in test [8], greater than 85.6 µM; in test [9], greater than 100 µM; in [10] it was greater than 100 µM.

As to `N#Cc1c(C(=O)c2ccccc2)cnn1-c1ccccc1`, the GI50 in test [1] was greater than 25 µM; in test [2], greater than 25 µM; in test [3] it was greater than 25 µM; in test [4], greater than 25000 nM; in test [5], greater than 25000 nM; in test [6] it was greater than 25 µM. The GI50 in test [7], in [8], in test [9] and in test [10] was greater than 25 µM throughout. Moreover, the TGI in [1], in [2], in test [3], in test [4], in test [5] and in [6] was greater than 25 µM each time. Besides, the TGI in [7], in test [8], in [9] and in test [10] was greater than 25 µM in each case.

In the case of `O=C(O)c1ccc2c(c1)Cc1cc([N+](=O)[O-])ccc1-2`, the TGI in [1], in test [2], in test [3], in [4], in test [5] and in test [6] was greater than 100 µM each time. For the same compound, the TGI in [7], in test [8], in test [9] and in test [10] was greater than 100 µM in each case.

With `CN(C)CCCn1c2c(c3cnccc3c1=O)C(=O)c1ccccc1-2`, the GI50 in [1] was 0.145 µM; in [2], 0.269 µM; in test [3], 0.558 µM; in test [4] it was 318 nM; in test [5], 483 nM; in [6] it was 0.309 µM. The GI50 in [7] is 1.17 µM; in test [8], 1.2 µM; in [9] it was 0.245 µM; in test [10], 0.242 µM. The TGI in test [1] came to 3.63 µM; in test [2], 3.66 µM; in [3] it was 9.04 µM; in test [4], 2.87 µM; in test [5], 10.8 µM; in [6], 1.46 µM. Besides, the TGI in test [7] turned out to be 5.95 µM; in [8] it was 8.43 µM; in test [9], 11.7 µM; in test [10], 11.3 µM.

On to `COc1ccc(-n2c(SCc3cc(OC)c(OC)c(OC)c3)nc3ccc(C)cc3c2=O)c(OC)c1`, for which the GI50 in test [1] is 7.49 µM; in test [2], 3.87 µM; in [3], 7.93 µM; in test [4] it was 2380 nM; in [5] it was 2680 nM; in test [6], 5.19 µM. Besides, the GI50 in test [7] was 2.25 µM; in [8] it was 4.31 µM; in test [9], 3.85 µM; in test [10] it was 4.04 µM. In addition, the TGI in test [1] was greater than 100 µM; in [2], 11.9 µM; in test [3] it was greater than 100 µM; in test [4], 6.69 µM; in test [5], greater than 100 µM; in [6], greater than 100 µM. Further, the TGI is 40.3 µM in [7], greater than 100 µM in test [8], greater than 100 µM in [9] and greater than 100 µM in [10].

Take `C=C1C(=O)O[C@H]2[C@H]1CC/C(COC(=O)NCc1cc3ccccc3[nH]1)=C\CC[C@@]1(C)O[C@@H]21`: the GI50 in [1] is 1.38 µM; in [2] it was 1.8 µM; in test [3], 2.26 µM; in test [4], 443 nM; in test [5], 2520 nM; in test [6] it was 1.62 µM. Moreover, the GI50 is 10.9 µM in [7], 1.56 µM in test [8], 1.37 µM in [9] and 2.21 µM in test [10]. The TGI in [1] was 2.75 µM; in test [2], 3.59 µM; in test [3], 5.12 µM; in test [4] it was 3.36 µM; in [5], 8.06 µM; in test [6], 3.2 µM. Further, the TGI in test [7] was found to be 23.4 µM; in test [8], 3.14 µM; in test [9], 2.77 µM; in [10], 4.7 µM.

With `O=C(O)c1cc2ccccc2c(O)c1O`, the TGI in test [1] was 31.8 µM; in test [2], 31.4 µM; in [3], 32.1 µM; in test [4], greater than 58.6 µM; in test [5] it was 41.5 µM; in test [6], 13 µM. Further, the TGI in test [7] turned out to be 51.7 µM; in [8], 30 µM; in test [9], 30.7 µM; in [10], 49.3 µM.

As for `CC(=O)Nc1ccc(/C=C/[N+](=O)[O-])cc1`, the TGI was determined as 9.44 µM in test [1]; 7.28 µM in [2]; 9.25 µM in [3]; 7.48 µM in test [4]; 31.3 µM in test [5]; 4 µM in test [6]. The TGI in test [7] turned out to be 15.2 µM; in test [8], 12.4 µM; in test [9], 6.07 µM; in test [10], 3.93 µM.

Consider `O=Cc1c(-c2cc(O)ccc2O)nc2sccn12`, for which the GI50 in [1] is 9.85 µM; in test [2], 32.3 µM; in [3], 23.1 µM; in test [4], 950 nM; in [5], 16000 nM; in test [6], 10.6 µM. Further, the GI50 in [7] was 29.5 µM; in [8] it was 18 µM; in test [9] it was 14 µM; in [10] it was 35.1 µM. For the same compound, the TGI in [1] is 22.6 µM; in [2], greater than 100 µM; in test [3], 74.4 µM; in [4], 7.21 µM; in [5], 48.5 µM; in test [6], 32 µM. The TGI in [7] was 78.9 µM; in test [8], 48.8 µM; in test [9], 27.3 µM; in test [10] it was greater than 100 µM.

As to `O=C(/C=C/c1cccnc1)NCCCCC1CCN(C(=O)c2ccccc2)CC1`, the GI50 is greater than 100 µM in test [1]; 25.4 µM in test [2]; 27.7 µM in [3]; less than 10 nM in [4]; less than 13.5 nM in test [5]; 70.3 µM and > 58 µM in test [6]. Also, the GI50 in test [7] is > 100 µM and 14.5 µM; in test [8], 6.11 µM and 19.6 µM; in test [9], less than 0.01 µM; in [10], less than 0.01 µM. Further, the TGI in [1], in test [2], in test [3], in [4], in [5] and in test [6] was greater than 100 µM each time. Also, the TGI was > 100 µM and 97.8 µM in [7]; greater than 100 µM in test [8]; greater than 100 µM in test [9]; greater than 100 µM in test [10].

For `COCCn1cc(-c2csc(-c3c[nH]c4ccccc34)n2)c2cccnc21`, the GI50 was 5.59 µM in test [1]; 2.66 µM in test [2]; 28.2 µM in test [3]; greater than 100000 nM in test [4]; 1760 nM in test [5]; 4.58 µM in [6]. Moreover, the GI50 was 3.03 µM in test [7], 4.45 µM in [8], 3.63 µM in test [9] and 3.19 µM in [10]. For the same compound, the TGI in test [1] was greater than 100 µM; in test [2], greater than 100 µM; in test [3], greater than 100 µM; in test [4], greater than 100 µM; in [5], 6.9 µM; in test [6] it was greater than 100 µM. Also, the TGI is 9.56 µM in test [7], greater than 100 µM in test [8], greater than 100 µM in test [9] and greater than 100 µM in test [10].
